Measurements as given in ChEMBL document CHEMBL6078682, “Circumventing Imatinib resistance in CML: Novel Telmisartan-based cell death modulators with improved activity and stability” (Eur J Med Chem, 2025).
Values after ≈ are worked out from the molar mass of the structure shown. Active and inactive are the calls of the source. The rule behind the calls is not given here.

Tests used:
K562-IMA[r] = experiment: Cytotoxicity against human Imatinib-resistant K562 cells assessed as effect on metabolic activity at 10 uM incubated for 72 hrs by MTT assay; type: functional, cell-based
[1] = Stability of the compound assessed as Pseudomonas aeruginosa Amidase-mediated hydrolysis at 800 uM measured after 6 hrs by HPLC analysis; type: ADME; conditions: isolated protein
COS-7 = experiment: Cytotoxicity against african green monkey COS-7 cells assessed as effect on metabolic activity at 10 uM incubated for 72 hrs by MTT assay; type: toxicity, cell-based; conditions: chlorocebus aethiops, cos-7, 72 h
[2] = Retention time of compound by HPLC analysis; type: physicochemical
[3] = Stability in cell culture medium containing fetal bovine serum assessed as compound remaining at 200 uM at 37 degreeC measured after 72 hrs by RP-HPLC analysis; type: ADME, cell-free; conditions: cattle, read-out: Stability
K562 [4] = experiment: Re-sensitization of human K562 cells to imatinib assessed as reduction in metabolic activity by measuring maximal sensitizing concentration in presence of imatinib by EZ4U assay; type: functional, cell-based; conditions: read-out: EC50
[5] = Cytotoxicity against human HS5 cells assessed as effect on metabolic activity at 10 uM incubated for 72 hrs by MTT assay; type: toxicity, cell-based; conditions: hs5, 72 h
[6] = Drug uptake in human Imatinib-resistant K562 cells assessed as increase in fluorescent intensity measured after 3 hrs by coomassie brilliant blue staining based analysis; type: ADME, cell-based; conditions: k562-ima[r]
K562 [7] = experiment: Re-sensitization of human K562 cells to imatinib assessed as reduction in metabolic activity at 5 uM in presence of 1 uM imatinib by EZ4U assay; type: functional, cell-based
[8] = Stability of compound in PBS buffer incubated for 8 to 24 hrs by HPLC analysis; type: physicochemical; conditions: time 8-24 hrs
Liver carboxylesterase [9] = molecular target: T1, Liver carboxylesterase (Sus scrofa, UniProt Q29550); experiment: Stability of the compound assessed as porcine liver esterase-mediated hydrolysis at 800 uM measured after 180 mins by HPLC analysis; type: ADME; conditions: pig, isolated protein, 3 h
T1 sequence (Q29550 whole entry): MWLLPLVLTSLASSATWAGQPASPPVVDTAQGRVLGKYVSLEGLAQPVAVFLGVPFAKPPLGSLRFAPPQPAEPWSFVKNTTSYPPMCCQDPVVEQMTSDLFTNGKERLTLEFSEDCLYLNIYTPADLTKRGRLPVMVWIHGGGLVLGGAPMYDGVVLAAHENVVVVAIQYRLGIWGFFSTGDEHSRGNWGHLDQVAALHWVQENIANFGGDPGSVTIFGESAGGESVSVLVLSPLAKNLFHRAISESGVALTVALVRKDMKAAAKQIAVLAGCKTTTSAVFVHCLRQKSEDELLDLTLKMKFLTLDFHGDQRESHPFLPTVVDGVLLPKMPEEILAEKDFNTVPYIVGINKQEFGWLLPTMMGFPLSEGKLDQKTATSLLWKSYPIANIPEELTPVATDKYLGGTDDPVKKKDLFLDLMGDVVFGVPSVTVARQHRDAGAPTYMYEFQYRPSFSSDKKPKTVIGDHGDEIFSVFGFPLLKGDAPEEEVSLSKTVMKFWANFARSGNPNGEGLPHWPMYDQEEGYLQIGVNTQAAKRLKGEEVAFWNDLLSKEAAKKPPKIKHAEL

[10] = Drug uptake in human Imatinib-resistant K562 cells assessed as increase in fluorescent intensity measured at 24 hrs by coomassie brilliant blue staining based analysis; type: ADME, cell-based; conditions: k562-ima[r]
[11] = Drug uptake in human Imatinib-resistant K562 cells assessed as increase in fluorescent intensity measured after 1 hr by coomassie brilliant blue staining based analysis; type: ADME, cell-based; conditions: k562-ima[r]
Liver carboxylesterase [12] = molecular target: T1, Liver carboxylesterase; experiment: Stability of the compound assessed as porcine liver esterase-mediated hydrolysis by measuring half life at 800 uM measured after 180 mins by HPLC analysis; type: ADME; conditions: pig
amidase = experiment: Stability of the compound assessed as Pseudomonas aeruginosa Amidase-mediated hydrolysis by measuring half life at 800 uM measured after 24 hrs by HPLC analysis; type: ADME
[13] = Drug uptake in human Imatinib-resistant K562 cells assessed as increase in fluorescent intensity measured after 24 hrs by coomassie brilliant blue staining based analysis; type: ADME, cell-based; conditions: k562-ima[r]
[14] = Stability of the compound assessed as Pseudomonas aeruginosa Amidase-mediated hydrolysis at 800 uM measured after 24 hrs by HPLC analysis; type: ADME; conditions: isolated protein
[15] = Drug uptake in human Imatinib-resistant K562 cells assessed as increase in fluorescent intensity measured after 1 to 24 hrs by coomassie brilliant blue staining based analysis; type: ADME, cell-based; conditions: k562-ima[r], time 1-24 hrs
K562 [16] = experiment: Re-sensitization of human K562 cells to imatinib assessed as reduction in metabolic activity at 10 uM in presence of imatinib by EZ4U assay; type: functional, cell-based
[17] = Solubility of compound in DMSO measured for 30 mins by UV-spectroscopy analysis; type: physicochemical
K562 [18] = experiment: Re-sensitization of human K562 cells to imatinib assessed as reduction in metabolic activity at 5 uM in presence of imatinib by EZ4U assay; type: functional, cell-based

SMILES | Retention_time [2] [min] | remaining at 72 h, 200 µM [3] [%] | Stability [8] | Stability (Liver carboxylesterase [9]) | half-life at 800 µM (Liver carboxylesterase [12]) [h] | Activity (K562-IMA[r]) | Activity (COS-7) | maximal sensitizing concentration (K562 [4]) [nM] | Activity [5] | Activity (K562 [7]) | also measured
CCCc1nc2ccccc2n1Cc1ccc(-c2ccccc2C(=O)Nc2ccccc2)cc1 | 12 | 98.4 | Stable | Stable | – | inactive | Non-toxic | 1600 | Non-toxic | Active | Stability [1]: Stable; Drug uptake [6]: 2.7 nmol/mg; Drug uptake [10]: 14.5 nmol/mg; Drug uptake [11]: 1.9 nmol/mg
CCCc1nc2ccccc2n1Cc1ccc(-c2ccccc2C(=O)OC(C)(C)C)cc1 | 13.4 | 97.2 | Stable | – | – | inactive | Non-toxic | 2900 | Non-toxic | Active | –
CCCNC(=O)c1ccccc1-c1ccc(Cn2c(CCC)nc3ccccc32)cc1 | < 11.1 | 95.1 | Stable | – | – | inactive | Non-toxic | 4500 | Non-toxic | Active | –
CCCc1nc2ccccc2n1Cc1ccc(-c2ccccc2C(=O)NC)cc1 | 9.9 | 93.4 | Stable | Stable | – | inactive | Non-toxic | 11200 | Non-toxic | inactive | half-life at 800 µM (amidase): 33.6 h; Drug uptake [13]: Not_active; Stability [14]: Stable; Drug uptake [15]: Not_active
CCCc1nc2ccccc2n1Cc1ccc(-c2ccccc2C(=O)NC(C)C)cc1 | 10.8 | 99.1 | Stable | – | – | inactive | Non-toxic | 4800 | Non-toxic | Active | –
CCCc1nc2ccccc2n1Cc1ccc(-c2ccccc2C(=O)NCC)cc1 | < 10.3 | 95.1 | Stable | Stable | – | inactive | Non-toxic | 6200 | Non-toxic | Active | half-life at 800 µM (amidase): 65 h; Stability [14]: Stable
CCCCNC(=O)c1ccccc1-c1ccc(Cn2c(CCC)nc3ccccc32)cc1 | < 11.6 | 97.1 | Stable | Stable | – | inactive | Non-toxic | 1300 | Non-toxic | Active | Stability [1]: Stable
CCCOC(=O)c1ccccc1-c1ccc(Cn2c(CCC)nc3ccccc32)cc1 | < 13.6 | 75.9 | Stable | – | 1.16 | inactive | Non-toxic | 1800 | Non-toxic | Active | –
CCCc1nc2ccccc2n1Cc1ccc(-c2ccccc2C(=O)Oc2ccc(Oc3ccccc3)cc2)cc1 | 15.2 | 99.8 | Stable | – | 6.17 | inactive | Non-toxic | 2500 | Non-toxic | Active | solubility at 0.5 h [17]: 22 mM (≈ 11.9 mg/mL)

The next lines start with results.

Retention_time [2] [min] | remaining at 72 h, 200 µM [3] [%] | Stability [8] | Stability (Liver carboxylesterase [9]) | half-life at 800 µM (Liver carboxylesterase [12]) [h] | SMILES | Activity (K562-IMA[r]) | Activity (COS-7) | maximal sensitizing concentration (K562 [4]) [nM] | Activity [5] | Activity (K562 [7]) | also measured
< 13.8 | 78 | Stable | – | 1.37 | CCCCOC(=O)c1ccccc1-c1ccc(Cn2c(CCC)nc3ccccc32)cc1 | inactive | Non-toxic | 1600 | Non-toxic | Active | –
< 12.8 | 71.9 | Stable | – | 1.05 | CCCc1nc2ccccc2n1Cc1ccc(-c2ccccc2C(=O)OCC)cc1 | inactive | Non-toxic | 2100 | Non-toxic | Active | –
13.6 | 102 | Stable | Stable | – | CCCc1nc2ccccc2n1Cc1ccc(-c2ccccc2C(=O)Nc2ccc(Oc3ccccc3)cc2)cc1 | inactive | Non-toxic | 1300 | Non-toxic | Active | Stability [1]: Stable
13.1 | 91.9 | Stable | – | – | CCCc1nc2ccccc2n1Cc1ccc(-c2ccccc2C(=O)OC(C)C)cc1 | inactive | Non-toxic | 2200 | Non-toxic | Active | –
11.5 | 100 | Stable | Stable | – | CCCc1nc2ccccc2n1Cc1ccc(-c2ccccc2C(=O)NC(C)(C)C)cc1 | inactive | Non-toxic | 5200 | Non-toxic | Active | Stability [1]: Stable
10.8 | – | – | – | – | CCCc1nc2ccccc2n1Cc1ccc(-c2ccccc2C(=O)O)cc1 | – | – | – | – | – | Activity (K562 [16]): Active
13.7 | 94.8 | Stable | – | 4.67 | CCCc1nc2ccccc2n1Cc1ccc(-c2ccccc2C(=O)Oc2ccccc2)cc1 | inactive | Non-toxic | 1500 | Non-toxic | Active | Drug uptake [13]: 15.7 nmol/mg; Drug uptake [6]: 13.1 nmol/mg
12.4 | 67.8 | Stable | – | 0.917 | CCCc1nc2ccccc2n1Cc1ccc(-c2ccccc2C(=O)OC)cc1 | inactive | Non-toxic | 2400 | Non-toxic | – | Drug uptake [13]: 4.7 nmol/mg; Drug uptake [6]: 3.5 nmol/mg; Activity (K562 [18]): Active; Drug uptake [11]: 3 nmol/mg
15.3 | – | Stable | – | – | CCCc1nc2ccccc2n1Cc1ccc(-c2ccccc2C(=O)Oc2ccc(-c3ccccc3)cc2)cc1 | – | – | – | – | – | solubility at 0.5 h [17]: 16 mM (≈ 8.36 mg/mL)
